Broadly, the ED50 is the dose that gives a 50% effect, or the effect in half of the subjects.

From patent US5030733A, “Hydroxy-, alkoxy- and benzyloxy-substituted phospholipids” (Hoechst-Roussel Pharmaceticals Incorporated, priority 1989, dated 1991) come the findings set out here.

The test system of this assay is phenyl-para-quinone induced writhing. As to the kind of experiment: phenyl-para-quinone (PQW) writhing assay for analgesia. It counts as in vivo. The note with it: Mus musculus, sc; 50% inhibition of writhing, s.c., mice; read-out: ED50 (subcutaneous dose at which 50% of the phenyl-para-quinone induced writhing is inhibited). An excerpt: The compounds of the present invention are also useful as analgesic agents due to their ability to alleviate pain in mammals. […] Exptl. Biol. Med., 95, 729 (1957)]. Presented in Table 2 is the analgesic effect of some of the compounds of the invention expressed as either the subcutaneous dose at which 50% of the phenyl-para-quinone induced writhing is inhibited in the animals, i.e., the ED50 value, or as the % decrease in writhing at a give dose.
Background: In writhing tests, fewer writhes than in controls are read as antinociception.

Take `CCC(=O)O[C@](Cc1ccccc1)(c1ccccc1)[C@H](C)CN(C)C` [Propoxyphene]: the ED50 came to 3.9 mg/kg.
